Measured values from PMC3265452 (PLoS Neglected Tropical Diseases, 2012).
Counter-ions that a name gives are not always drawn. Like-named read-outs stand apart in the source and are kept apart here.

Target: AaDOP2 (Aedes aegypti, UniProt H6D5H2)
Test: AaDOP2 antagonist screen of the LOPAC1280 library (HEK-CRELuc-Aadop2 cells, luminescence)
Type: cell-based
[1] = 10 µM compound, 300 nM dopamine, 2 hr, hit = compound effect <20

Sequence of AaDOP2 (H6D5H2 1-476): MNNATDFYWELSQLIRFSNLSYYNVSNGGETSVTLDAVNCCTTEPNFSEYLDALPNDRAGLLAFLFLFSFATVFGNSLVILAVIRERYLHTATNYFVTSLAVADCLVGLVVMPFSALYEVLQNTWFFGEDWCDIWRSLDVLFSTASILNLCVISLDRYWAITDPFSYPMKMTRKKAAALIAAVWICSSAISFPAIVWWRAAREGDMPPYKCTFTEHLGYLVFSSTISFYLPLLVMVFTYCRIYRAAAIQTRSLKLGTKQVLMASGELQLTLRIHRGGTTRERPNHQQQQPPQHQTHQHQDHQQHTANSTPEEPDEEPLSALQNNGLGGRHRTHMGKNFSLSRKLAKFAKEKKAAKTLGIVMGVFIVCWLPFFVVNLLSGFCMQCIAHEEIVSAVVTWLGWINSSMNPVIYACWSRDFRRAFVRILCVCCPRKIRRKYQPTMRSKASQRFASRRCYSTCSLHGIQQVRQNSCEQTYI

SMILES	Compound effect (percent receptor signaling in presence of test compound, relative lux units relative to the SCH23390 control) [1] [%]	Compound effect (percent receptor signaling in presence of test compound, relative lux units relative to the SCH23390 control)
O=C([O-])c1cc2cc(Cc3cccnc3)ccc2o1.[Na+] [Compound 516, Furegrelate sodium]	146	–
COc1cccc2c1[C@@H]1CN(CCCCn3c(=O)[nH]c4c(sc5ncc(-c6ccccc6)nc54)c3=O)C[C@@H]1CO2 [Compound 517, Fiduxosin hydrochloride]	–	69
NS(=O)(=O)c1cc(C(=O)O)c(NCc2ccco2)cc1Cl [Compound 518, Furosemide]	–	129
N[C@@H](Cc1ccc(F)cc1)C(=O)O [Compound 519, p-Fluoro-L-phenylalanine]	97	–
CC(C)OC(=O)C(C)(C)Oc1ccc(C(=O)c2ccc(Cl)cc2)cc1 [Compound 521, Fenofibrate]	–	95
O=C1NCC2(CCN(CCc3ccccc3)CC2)O1 [Compound 522, Fenspiride hydrochloride]	–	98
CCOC(=O)c1ncn2c1CN(C)C(=O)c1cc(F)ccc1-2 [Compound 523, Flumazenil]	–	124
COc1cc(=O)n(C)c2c(OCC(O)C(C)(C)O)cccc12 (centres unmarked) [Compound 524, Foliosidine]	190	–
CCCCc1ccc(C(=O)O)nc1 [Compound 525, Fusaric acid]	–	152
O=c1[nH]cc(F)c(=O)[nH]1 [Compound 526, 5-Fluorouracil]	–	156
O=C(NCC1CCCCN1)c1cc(OCC(F)(F)F)ccc1OCC(F)(F)F (centres unmarked) [Compound 527, Flecainide acetate]	–	111
Oc1ccc(C2CNCCc3c2cc(O)c(O)c3Cl)cc1 (centres unmarked) [Compound 528, Fenoldopam bromide]	–	112
C=C[C@@]1(C)CC(=O)[C@]2(O)[C@@]3(C)[C@@H](O)CCC(C)(C)[C@@H]3[C@H](O)[C@H](OC(C)=O)[C@@]2(C)O1 [Compound 529, Forskolin]	–	46
NC(N)=Nc1nc(CSCCC(N)=NS(N)(=O)=O)cs1 [Compound 530, Famotidine]	–	115
CCCn1c(=O)c2[nH]c(C3CCCC3)nc2n(CCCOC(=O)c2ccc(S(=O)(=O)F)cc2)c1=O [Compound 531, FSCPX]	97	–
CC(C)=CCC/C(C)=C/CC/C(C)=C/CSc1ccccc1C(=O)O [Compound 532, Farnesylthiosalicylic acid]	120	–
Fc1ccc(C(c2ccc(F)cc2)N2CCN(C/C=C/c3ccccc3)CC2)cc1 [Compound 533, Flunarizine dihydrochloride]	–	71
C[C@H]1O[C@@H](n2cc(F)c(=O)[nH]c2=O)[C@H](O)[C@@H]1O [Compound 534, 5-fluoro-5'-deoxyuridine]	–	111
CC(C)C(=O)Nc1ccc([N+](=O)[O-])c(C(F)(F)F)c1 [Compound 536, Flutamide]	–	99

SMILES	Compound effect (percent receptor signaling in presence of test compound, relative lux units relative to the SCH23390 control) [1] [%]	Compound effect (percent receptor signaling in presence of test compound, relative lux units relative to the SCH23390 control)
CC(C)(C(=O)O)c1ccc(C(O)CCCN2CCC(C(O)(c3ccccc3)c3ccccc3)CC2)cc1 (centres unmarked) [Compound 537, Fexofenadine hydrochloride]	–	87
CCOC(=O)C1=C(C)NC(C)=C(C(=O)OC)C1c1cccc(Cl)c1Cl (centres unmarked) [Compound 539, Felodipine]	–	96
O=C1NCN(c2ccccc2)C12CCN(CCCC(c1ccc(F)cc1)c1ccc(F)cc1)CC2 [Compound 540, Fluspirilene]	–	53
Cc1nc2c([nH]1)c(=O)n(C)c(=O)n2Cc1ccco1 [Compound 542, Furafylline]	–	120
COC(=O)c1c(C)[nH]c(C)c1C(=O)c1ccccc1Cc1ccccc1 [Compound 543, FPL 64176]	–	86
CNCCC(Oc1ccc(C(F)(F)F)cc1)c1ccccc1 (centres unmarked) [Compound 544, Fluoxetine hydrochloride]	–	118
NCC(=O)NCCC(c1ccccc1)c1ccccc1 [Compound 545, N-(3,3-Diphenylpropyl)glycinamide]	–	105
COc1ccc(Cl)cc1C(=O)NCCc1ccc(S(=O)(=O)NC(=O)NC2CCCCC2)cc1 [Compound 546, Glibenclamide]	–	118
CN(C)c1cc2c(Nc3ccc4c(cnn4Cc4ccccc4)c3)ncnc2cn1 [Compound 547, GW2974]	–	68
N=C(N)NC(=O)Cc1c(Cl)cccc1Cl [Compound 548, Guanfacine hydrochloride]	–	112
Cl.N[C@@H](CCC(=O)O)C(=O)O [Compound 549, L-Glutamic acid hydrochloride]	93	–
Nc1nc(O)c2ncn(COC(CO)CO)c2n1 [Compound 550, Ganciclovir]	–	92
NC(=O)CC[C@H](N)C(=O)O [Compound 551, L-Glutamine]	–	115
NC(N)=Nc1ccc2[nH]c3c(c2c1)C[C@@]1(O)[C@H]2Cc4ccc(O)c5c4[C@@]1(CCN2CC1CC1)[C@H]3O5.O=C(O)C(F)(F)F.O=C(O)C(F)(F)F [Compound 552, Guanidinyl-naltrindole di-trifluoroacetate]	–	120
Br.Br.N=C(N)NCCSSCCNC(=N)N [Compound 553, Guanidinoethyl disulfide dihydrobromide]	105	–
CN(CCOc1ccc(C[C@H](Nc2ccccc2C(=O)c2ccccc2)C(=O)O)cc1)c1ccccn1 [Compound 554, GW1929]	–	131
O=C1Nc2ccc(I)cc2/C1=C/c1cc(Br)c(O)c(Br)c1 [Compound 555, GW5074]	–	25
O=c1c(-c2ccc(O)cc2)coc2cc(O)cc(O)c12 [Compound 556, Genistein]	–	67
CC(C)(Sc1ccc(CCN(CCCCC2CCCCC2)C(=O)NC2CCCCC2)cc1)C(=O)O [Compound 557, GW7647]	–	50
